Biological target: T1, hA3G degradation mediated by HIV-1 Vif (UniProt P69723+Q9HC16)
T1 construct: expressed in transfected cells
Test: Screening experiment for up-regulation activity to hA3G (YFP-fused hA3G co-expressed with HIV-1 Vif, fluorescence)
Format: cell-based, human
Conditions: YFP fluorescence of cells co-expressing Vif and hA3G-YFP; excitation 485 nm, detection 520 nm; averages of duplicates
Excerpt: Based on the advances making research on the hA3G degradation mediated by HIV-1 Vif, this invention establishes a high throughput anti-HIV-1 drug screening model using hA3G degradation mediated by HIV-1 Vif as target, to screen small molecule active compounds capable of inhibiting this degradation process. The function principle of this model is that HIV-1 Vif protein and hA3G fused yellow fluorescent protein (YFP) co-expressed in the cells, then the intracellular fluorescence intensity (at […]) decreases owing to the degradation of hA3G caused by Vif and subsequent degradation of YEP fused on hA3G. By means of measuring the change of fluorescent intensity, the influence of the screened compounds on the degradation of hA3G caused by Vif can quantitatively be analyzed. Simultaneously, to differentiate the non-specific inhibitory effect of diverse ubiquitin degradation route in the samples, this invention establishes a recheck model based on the detection of P53 degradation caused by the product of adenovirus early gene, to assure that the positive samples screened out by the proposed model can specifically block the degradation of hA3G caused by Vif.
Screening Experiment for Up-Regulation Activity to hA3G
The cells are picked up and cultured a culture bottle. When the cells grow full of the culture bottle, old culture medium is discarded and the cells are digested with digestion medium. When the cells turn round, the digestion medium is discarded and the culture medium is added in at once, the bottom of the bottle is gently blown with a pipette to make the cells disengage the bottle bottom and disperse into single cell suspension. After counting the cells using blood cell counting chamber, the cell suspension is inoculated into a culture dish for transfection. The medium containing the plasmid to be transfected and the transfection reagents is gently mixed up and incubated at room temperature. The medium is then added into the supernatant of the cell culture and cultured for a certain period of time. The old culture medium is then sucked out, the cells are digested with digestive medium, the digestive medium is subsequently discarded and culture medium is immediately added. The medium is gently blown to disperse the cells into single cell suspension. After counting the cells using blood cell counting chamber, the cells are ready for inoculation.
Samples of compounds[…]Pure tested compounds are dissolved in DMSO, the solution is diluted with equal proportional distilled water. The diluent is used to test the cell systems.
Sample solution of different concentration is added into the supernatant of a cell culture. After the cells are continuously cultured, old culture medium is sucked out and the cells are blown with PBS buffer until the cells completely disengage from the culture bottle.
The fluorescence intensity values of the cell suspension with test compound samples, positive control samples and negative control samples are respectively measured with fluorometer, the excitation wavelength is 485 nm and the detection wavelength 520 nm. Averages of duplicated measurements are taken as the results.
The measured fluorescence intensity values of the negative control samples (blink sample) subtracted from those of test compound samples, the results are taken as YFP fluorescence of different groups. Relative fluorescence intensity=fluorescence intensity of a test sample group/fluorescence intensity of the positive control group×100% Inhibition rate of degradation=(test sample group−negative control group)/(positive control group−negative control group)×100%

T1 sequence (P69723 whole entry): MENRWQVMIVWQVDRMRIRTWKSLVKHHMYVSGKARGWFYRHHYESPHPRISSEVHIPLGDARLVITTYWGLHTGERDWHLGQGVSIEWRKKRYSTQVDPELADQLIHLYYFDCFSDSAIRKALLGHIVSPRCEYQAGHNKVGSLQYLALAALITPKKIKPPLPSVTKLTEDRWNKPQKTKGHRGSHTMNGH
T1 sequence (Q9HC16 whole entry): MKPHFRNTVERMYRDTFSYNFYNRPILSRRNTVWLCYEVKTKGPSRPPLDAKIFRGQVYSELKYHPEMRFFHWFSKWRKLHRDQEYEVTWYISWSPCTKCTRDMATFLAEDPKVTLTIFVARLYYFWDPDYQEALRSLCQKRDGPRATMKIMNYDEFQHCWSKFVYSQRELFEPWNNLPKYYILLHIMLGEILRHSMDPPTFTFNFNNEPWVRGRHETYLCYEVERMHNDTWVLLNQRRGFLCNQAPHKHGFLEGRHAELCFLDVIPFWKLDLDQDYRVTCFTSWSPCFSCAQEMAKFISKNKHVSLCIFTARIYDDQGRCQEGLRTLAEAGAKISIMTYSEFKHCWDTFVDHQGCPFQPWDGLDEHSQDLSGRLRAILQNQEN

Compound: COc1ccc(NC(=O)c2ccc(OC)c(NC(C)C)c2)cc1 [Compound 43]
- hA3G up-regulation activity (%): 26.4%

Compound: CCC(=O)Nc1cc(C(=O)Nc2ccncn2)ccc1OC [Compound 61, N-(pyrimidyl-4′-)-4-methoxy-3-propionamidobenzamide]
- hA3G up-regulation activity (%): 11.8%

Compound: COc1ccc(C(=O)Sc2cc(OC)c(OC)c(OC)c2)cc1NC(=O)C(C)F (stereo not drawn) [Compound 21, S-(3′,4′,5′-trimethoxyphenyl)-3-(2-fluoropropionamido)-4-methoxybenzenecarbothiolate]
- hA3G up-regulation activity (%): 21.1%

Compound: COc1cc(NC(=O)c2ccc(OC)c(N(C)C)c2)cc(OC)c1 [Compound 41]
- hA3G up-regulation activity (%): 21.8%

Compound: COc1cc(NC(=O)c2cc(NC(C)=O)cc(C(F)(F)F)c2)cc(OC)c1OC [Compound 74]
- hA3G up-regulation activity (%): 8.5%

Compound: COc1ccc(C(=O)Oc2cc(OC)c(OC)c(OC)c2)cc1NS(C)(=O)=O [Compound 103, 3′,4′,5′-trimethoxyphenyl 3-methanesulfamido-4-methoxybenzoate]
- hA3G up-regulation activity (%): 26.1%

Compound: CNc1cc(CNc2cc(OC)c(OC)c(OC)c2)ccc1OC [Compound 45]
- hA3G up-regulation activity (%): 27.6%

Compound: COc1ccc(C(=O)Oc2cc(OC)c(OC)c(OC)c2)cc1NC(=O)C(F)(F)F [Compound 353, 3,4,5-trimethoxyphenyl 3-trifluoroacetamido-4-methoxybenzoate]
- hA3G up-regulation activity (%): 39.0%

Compound: CCC(=O)Nc1ccc(C(=O)Nc2cc(OC)c(OC)c(OC)c2)cc1OC [Compound 64, N-(3′,4′,5′-trimethoxyphenyl)-3-methoxy-4-propionamidobenzamide]
- hA3G up-regulation activity (%): 11.7%

Compound: CCC(=O)Nc1cc(C(=O)Nc2ccc(OC(F)(F)F)cc2)ccc1C [Compound 69, N-(4′-trifluoromethoxyphenyl)-3-propionamido-4-methylbenzamide]
- hA3G up-regulation activity (%): 31.2%

Compound: COc1ccc(C(=O)Sc2cc(OC)c(OC)c(OC)c2)cc1NC(C)=O [Compound 22]
- hA3G up-regulation activity (%): 24.6%

Compound: COc1ccc(C(=O)Oc2cc(OC)c(OC)c(OC)c2)cc1N [Compound 4]
- hA3G up-regulation activity (%): 1.6%

Compound: CCC(Br)C(=O)Nc1cc(C(=O)Nc2cc(OC)c(OC)c(OC)c2)ccc1OC (stereo not drawn) [Compound 31]
- hA3G up-regulation activity (%): 26.4%

Compound: COc1cc(OC(=O)c2cc(NC(C)=O)cc(C(F)(F)F)c2)cc(OC)c1OC [Compound 73, 3′,4′,5′-trimethoxyphenyl 3-acetamido-5-trifluoromethylbenzoate]
- hA3G up-regulation activity (%): 29.0%

Compound: CCC(=O)Nc1cc(C(=O)Nc2cc(OC)c(OC)c(OC)c2)cc(F)c1OC [Compound 77]
- hA3G up-regulation activity (%): 14.9%

Compound: CCC(=O)Nc1cc(C(=O)Nc2cccc(OC)c2)ccc1OC [Compound 46]
- hA3G up-regulation activity (%): 29.1%

Compound: COc1ccc(C(=O)Oc2cc(OC)c(OC)c(OC)c2)cc1NC(=O)CBr [Compound 30]
- hA3G up-regulation activity (%): 15.2%

Compound: CCC(=O)Nc1cc(C(=O)Nc2ccc(S(N)(=O)=O)c(OC)c2)ccc1OC [Compound 99]
- hA3G up-regulation activity (%): 23.6%

Compound: CCC(=O)Nc1cc(NS(=O)(=O)c2cc(OC)c(OC)c(OC)c2)ccc1OC [Compound 91, N-(3′-propionamido-4′-methoxyphenyl)-(3,4,5-trimethoxy)benzenesulfonamide]
- hA3G up-regulation activity (%): 16.6%

Compound: COc1ccc(C(=O)Nc2cc(OC)c(OC)c(OC)c2)cc1O [Compound 87, N-(3′,4′,5′-trimethoxyphenyl)-3-hydroxyl-4-methoxybenzamide]
- hA3G up-regulation activity (%): 19.7%

Compound: CNc1cc(C(=O)Nc2cc(OC)c(OC)c(OC)c2)ccc1O [Compound 34]
- hA3G up-regulation activity (%): 38.3%

Compound: COc1ccc(S(=O)(=O)Nc2cc(OC)c(OC)c(OC)c2)cc1N [Compound 85, N-(3′,4′,5′-trimethoxyphenyl)-3-amino-4-methoxybenzenesulfonamide]
- hA3G up-regulation activity (%): 6.8%

Compound: CCC(=O)Nc1cc(C(=O)Nc2cc(OC)c(OC)c(OC)c2)c(F)cc1OC [Compound 79, N-(3′,4′,5′-trimethoxyphenyl)-3-propionamido-4-methoxy-6-fluorobenzamide]
- hA3G up-regulation activity (%): 21.6%

Compound: COc1ccc(C(=O)Nc2cc(OC)c(OC)c(OC)c2)cc1NC(=O)CF [Compound 17]
- hA3G up-regulation activity (%): 31.1%

Compound: COc1ccc(C(=O)Nc2ccc(OC)c(OC)c2)cc1NS(C)(=O)=O [Compound 102]
- hA3G up-regulation activity (%): 10.3%

Compound: COc1ccc(C(=O)Cc2cc(OC)c(OC)c(OC)c2)cc1NC(C)=O [Compound 13]
- hA3G up-regulation activity (%): 42.1%

Compound: COc1ccc(C(=O)Nc2cc(OC)c(OC)c(OC)c2)cc1NS(C)(=O)=O [Compound 101]
- hA3G up-regulation activity (%): 22.1%

Compound: CCC(=O)Nc1cc(C(=O)Nc2cc(OC)co2)ccc1OC [Compound 48, N-(4′-methoxyfuryl-2′-)-4-methoxy-3-propionamidobenzamide]
- hA3G up-regulation activity (%): 16.4%

Compound: COc1ccc(C(=O)Sc2cc(OC)c(OC)c(OC)c2)cc1NC(=O)C(C)Cl (stereo not drawn) [Compound 15]
- hA3G up-regulation activity (%): 19.4%

Compound: CCC(=O)Nc1cc(C(=O)Nc2ccc(OC)c(S(N)(=O)=O)c2)ccc1OC [Compound 97]
- hA3G up-regulation activity (%): 6.4%

Compound: COc1ccc(C(=O)Oc2cc(OC)c(OC)c(OC)c2)cc1NC(=O)CCl [Compound 27]
- hA3G up-regulation activity (%): 32.1%

Compound: CCC(=O)Nc1cc(C(=O)Nc2ccc(OC)c(F)c2)ccc1OC [Compound 78]
- hA3G up-regulation activity (%): 8.8%

Compound: CNc1cc(C(=O)Nc2cc(OC)nc(OC)n2)ccc1O [Compound 3, N-(2′,6′-dimethoxypyrimidinyl-4′-) 3-methylamino-4-hydroxylbenzamide]
- hA3G up-regulation activity (%): 20.2%

Compound: CCC(=O)Nc1cc(NS(=O)(=O)c2cc(OC)nc(OC)n2)ccc1OC [Compound 92]
- hA3G up-regulation activity (%): 23.7%

Compound: COc1ccc(C(=O)Cc2cc(OC)c(OC)c(OC)c2)cc1NC(=O)CF [Compound 20]
- hA3G up-regulation activity (%): 56.0%

Compound: CNc1cc(C(=O)Nc2ccc(S(N)(=O)=O)c(F)c2)ccc1OC [Compound 98, N-(3′-fluoro-4′-aminosulfonylphenyl)-3-methylamino-4-methoxybenzamide]
- hA3G up-regulation activity (%): 5.8%

Compound: CCC(=O)Nc1cc(C(=O)Nc2ccc([N+](=O)[O-])cc2)ccc1OC [Compound 2612, N-(4′-nitrophenyl)-3-propionamido-4-methoxybenzamide]
- hA3G up-regulation activity (%): 22.3%

Compound: CCC(=O)Nc1cc(C(=O)Nc2cc(OC)c(NC)c(OC)c2)ccc1OC [Compound 81]
- hA3G up-regulation activity (%): 14.4%

Compound: CCC(=O)Nc1cc(C(=O)Nc2cc(OC)c(O)c(OC)c2)ccc1OC [Compound 58]
- hA3G up-regulation activity (%): 16.6%

Compound: CCC(=O)Nc1cc(C(=O)Nc2ccnc(O)c2)ccc1OC [Compound 51]
- hA3G up-regulation activity (%): 0.9%

Compound: COc1ccc(C(=O)Sc2cc(OC)c(OC)c(OC)c2)cc1N [Compound 5, S-(3′,4′,5′-trimethoxyphenyl) 3-amino-4-methoxybenzenecarbothioate]
- hA3G up-regulation activity (%): 14.4%

Compound: CCC(=O)Nc1cc(S(=O)(=O)Nc2ccc(OC)c(OC)c2)cc(F)c1OC [Compound 95]
- hA3G up-regulation activity (%): 8.7%

Compound: CCC(=O)Nc1cc(C(=O)Nc2ccc(OC(F)(F)F)cc2)ccc1OC [Compound 67]
- hA3G up-regulation activity (%): 11.3%

Compound: COc1ccc(C(=O)Cc2cc(OC)c(OC)c(OC)c2)cc1NC(=O)CCl [Compound 28]
- hA3G up-regulation activity (%): 33.6%

Compound: CCC(=O)Nc1cc(S(=O)(=O)Nc2cc(OC)c(OC)c(OC)c2)ccc1OC [Compound 83, N-(3′,4′,5′-trimethoxyphenyl) 3-propionamido-4-methoxybenzenesulfamide]
- hA3G up-regulation activity (%): 31.0%

Compound: CCC(=O)Oc1cc(C(=O)Nc2cc(OC)c(OC)c(OC)c2)ccc1OC [Compound 86]
- hA3G up-regulation activity (%): 20.3%

Compound: COc1ccc(S(=O)(=O)Nc2cc(OC)c(OC)c(OC)c2)cc1O [Compound 90]
- hA3G up-regulation activity (%): 28.2%

Compound: COc1ccc(C(=O)Nc2cc(OC)c(OC)c(OC)c2)cc1NC(=O)C(C)F (stereo not drawn) [Compound 23]
- hA3G up-regulation activity (%): 29.3%

Compound: CCC(=O)Nc1cc(NC(=O)c2cc(OC)c(OC)c(OC)c2)ccc1OC [Compound 59]
- hA3G up-regulation activity (%): 19.8%

Compound: CCC(=O)Nc1cc(S(=O)(=O)Nc2ccc(NC)c(OC)c2)ccc1OC [Compound 96]
- hA3G up-regulation activity (%): 6.9%

Compound: COc1cc(OC(=O)c2cc(Cl)cc(NC(C)=O)c2)cc(OC)c1OC [Compound 72]
- hA3G up-regulation activity (%): 24.3%

Reference: US8710098B2, “Group of amino substituted benzoyl derivatives and their preparation and their use” (priority 2008, dated 2014)
